Target: T1, human TrkA (Homo sapiens, UniProt P04629)
T1 construct: purchased Lifetechnologies PV3144
Test: Test Example 2: Human TrkA Inhibition Assay
Type: biochemical
Settings: Test Example 2; human TrkA 2.5 nmol/L, ATP 500 μmol/L, 90 min at room temperature; read-out: TrkA inhibitory activity IC50
Protocol: After the incubation for 90 min at room temperature, ten μL of termination buffer (100 mmol/L HEPES, 40 mmol/L ethylenediaminetetraacetic acid (EDTA), 10 mmol/L magnesium chloride, 0.003 vol % Brij-35, 0.004 vol % Tween20, 1 mmol/L DTT and 0.16 vol % Coating Reagent 3) was added in each well to stop the enzyme reaction. Fluorescent intensities (FI) of phosphorylated and non-phosphorylated fluorescent substrates were measured by LabChip EZReader II (Caliper LifeSciences, Inc.) and conversion ratio (CR) was calculated by the following formula-1. The CR in the well applied with DMSO alone was used as a negative control and the CR in the well without applying TrkA was used as a positive control. The inhibitory effect of each compound on TrkA phosphorylation was calculated by the following formula-2. CR (%)=(FI of phosphorylated substrate/(FI of phosphorylated substrate+FI of non-phosphorylated substrate))×100 (Formula-1) Inhibitory effect on TrkA phosphorylation (%)=(1−(CR in compound treated well−CR in positive control)/(CR in negative control−CR in positive control))×100. (Formula-2)

T1 sequence (P04629 33-796): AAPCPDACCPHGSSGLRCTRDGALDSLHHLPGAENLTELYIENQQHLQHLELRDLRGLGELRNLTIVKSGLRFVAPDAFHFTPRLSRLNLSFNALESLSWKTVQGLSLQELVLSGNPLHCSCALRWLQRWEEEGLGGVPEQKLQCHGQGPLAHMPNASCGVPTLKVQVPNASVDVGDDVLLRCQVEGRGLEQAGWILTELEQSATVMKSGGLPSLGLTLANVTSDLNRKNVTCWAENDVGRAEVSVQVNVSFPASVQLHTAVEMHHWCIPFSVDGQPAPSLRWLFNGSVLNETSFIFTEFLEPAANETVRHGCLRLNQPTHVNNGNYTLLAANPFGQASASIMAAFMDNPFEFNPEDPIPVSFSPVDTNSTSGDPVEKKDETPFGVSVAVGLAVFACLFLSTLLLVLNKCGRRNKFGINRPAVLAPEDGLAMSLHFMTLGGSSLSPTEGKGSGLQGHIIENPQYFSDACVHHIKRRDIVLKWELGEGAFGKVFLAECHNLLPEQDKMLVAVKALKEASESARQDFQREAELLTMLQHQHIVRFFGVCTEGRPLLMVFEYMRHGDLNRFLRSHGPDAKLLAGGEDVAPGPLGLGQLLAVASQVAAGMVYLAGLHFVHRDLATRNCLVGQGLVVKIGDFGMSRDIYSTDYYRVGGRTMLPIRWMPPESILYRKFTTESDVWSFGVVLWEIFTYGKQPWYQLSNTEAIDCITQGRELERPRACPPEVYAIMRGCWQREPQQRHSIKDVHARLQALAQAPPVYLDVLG

| Compound | IC50 |
| --- | --- |
| COCC(CC#N)N1C[C@@H](NC(=O)Nc2c(C)c(-c3cnn(C)c3)nn2-c2ccccc2)[C@H](c2ccc(F)c(F)c2)C1 (stereo partly drawn) [Compound I-93] | 21 nM |
| COC1CCC1N1C[C@@H](NC(=O)Nc2c(C)c(-c3cnn(C)c3)nn2-c2ccccc2)[C@H](c2ccc(F)c(F)c2)C1 (stereo partly drawn) [Compound I-114] | 120 nM |
| COCC(CSC)N1C[C@@H](NC(=O)Nc2c(C)c(-c3cnn(C)c3)nn2-c2ccccc2)[C@H](c2ccc(F)c(F)c2)C1 (stereo partly drawn) [Compound I-130] | 460 nM |
| COCCC1(C)C[C@@H](NC(=O)Nc2c(C)c(-c3cnn(C)c3)nn2-c2ccccc2)[C@H](c2ccccc2)C1 (stereo partly drawn) [Compound I-132] | 480 nM |

Second part, the molecule after the results:

| IC50 | Compound |
| --- | --- |
| 34 nM | COCC(Cn1cccn1)N1C[C@@H](NC(=O)Nc2c(C)c(-c3cnn(C)c3)nn2-c2ccccc2)[C@H](c2ccc(F)c(F)c2)C1 (stereo partly drawn) [Compound I-100] |
| 79 nM | COCC(CN1CC(F)(F)C1)N1C[C@@H](NC(=O)Nc2c(C)c(-c3cnn(C)c3)nn2-c2ccccc2)[C@H](c2ccc(F)c(F)c2)C1 (stereo partly drawn) [Compound I-106] |
| 440 nM | COCCN1C[C@@H](NC(=NO)Nc2c(C)c(-c3cnn(C)c3)nn2-c2ccccc2)[C@H](c2ccccc2)C1 [Compound I-129] |
| 1100 nM | COCCN1C[C@@H](NC(=NS(C)(=O)=O)Nc2c(C)c(-c3cnn(C)c3)nn2-c2ccccc2)[C@H](c2ccccc2)C1 [Compound I-141] |
| 1300 nM | Cc1c(-c2cnn(C)c2)nn(-c2ccccc2)c1NC(=O)N[C@@H]1CN(CC2(C)COC2)C[C@H]1c1ccc(F)c(F)c1 [Compound I-142] |

Same assay, conditions: human TrkA inhibition, Test Example 2; class symbols A/B/C; read-out: IC50_nM

| Compound | IC50 |
| --- | --- |
| Cc1c(-c2cnn(C)c2)nn(-c2ccccc2)c1NC(=O)N[C@@H]1CN(S(C)(=O)=O)C[C@H]1c1ccc(F)c(F)c1 [Compound I-45] | > 1000 nM |
| Cc1c(-c2cnn(C)c2)nn(-c2ccccc2)c1NC(=O)N[C@@H]1CN(CCCS(C)(=O)=O)C[C@H]1c1ccc(F)c(F)c1 [Compound I-64] | > 1000 nM |
| Cc1c(-c2cnn(C)c2)nn(-c2ccccc2)c1NC(=O)N[C@@H]1CN(CC2CC2)C[C@H]1c1ccc(F)c(F)c1 [Compound I-66] | 100 to 1000 nM |
| Cc1c(-c2cnn(C)c2)nn(-c2ccccc2)c1NC(=O)N[C@@H]1CN(CC(F)(F)F)C(=O)[C@H]1c1ccc(F)c(F)c1 [Compound I-74] | > 1000 nM |
| COCCOCCN1C[C@@H](NC(=O)Nc2c(C)c(-c3cnn(C)c3)nn2-c2ccccc2)[C@H](c2ccc(F)c(F)c2)C1 [Compound I-81] | 100 to 1000 nM |
| COCCC1C[C@@H](NC(=O)Nc2c(C)c(-c3cnn(C)c3)nn2-c2ccccc2)[C@H](c2ccccc2)C1 (stereo partly drawn) [Compound I-85] | < 100 nM |
| Cc1c(-c2cnn(C)c2)nn(-c2ccccc2)c1NC(=O)N[C@@H]1CN(Cc2ccc(C#N)o2)C[C@H]1c1ccc(F)c(F)c1 [Compound I-89] | < 100 nM |
| Cc1c(-c2cnn(C)c2)nn(-c2ccccc2)c1NC(=O)N[C@@H]1CN(Cc2cscn2)C[C@H]1c1ccc(F)c(F)c1 [Compound I-90] | < 100 nM |
| COCC(CNO)N1C[C@@H](NC(=O)Nc2c(C)c(-c3cnn(C)c3)nn2-c2ccccc2)[C@H](c2ccc(F)c(F)c2)C1 (stereo partly drawn) [Compound I-92] | < 100 nM |
| Cc1c(-c2cnn(C)c2)nn(-c2ccccc2)c1NC(=O)N[C@@H]1CN(Cc2nccs2)C[C@H]1c1ccc(F)c(F)c1 [Compound I-97] | < 100 nM |
| CCC1C[C@@H](NC(=O)Nc2c(C)c(-c3cnn(C)c3)nn2-c2ccccc2)[C@H](c2ccccc2)C1 (stereo partly drawn) [Compound I-103] | < 100 nM |
| COCC(CCO)N1C[C@@H](NC(=O)Nc2c(C)c(-c3cnn(C)c3)nn2-c2ccccc2)[C@H](c2ccc(F)c(F)c2)C1 (stereo partly drawn) [Compound I-105] | < 100 nM |
| Cc1c(-c2cnn(C)c2)nn(-c2ccccc2)c1NC(=O)N[C@@H]1CN(C(CO)c2ccco2)C[C@H]1c1ccc(F)c(F)c1 (stereo partly drawn) [Compound I-108] | < 100 nM |
| COCC(C[n+]1ccccc1)N1C[C@@H](NC(=O)Nc2c(C)c(-c3cnn(C)c3)nn2-c2ccccc2)[C@H](c2ccc(F)c(F)c2)C1 (stereo partly drawn) [Compound I-110] | < 100 nM |
| COCC(CNC(C)=O)N1C[C@@H](NC(=O)Nc2c(C)c(-c3cnn(C)c3)nn2-c2ccccc2)[C@H](c2ccc(F)c(F)c2)C1 (stereo partly drawn) [Compound I-112] | 100 to 1000 nM |
| COCC(CNOC)N1C[C@@H](NC(=O)Nc2c(C)c(-c3cnn(C)c3)nn2-c2ccccc2)[C@H](c2ccc(F)c(F)c2)C1 (stereo partly drawn) [Compound I-113] | 100 to 1000 nM |
| COCC(CN(C)C)N1C[C@@H](NC(=O)Nc2c(C)c(-c3cnn(C)c3)nn2-c2ccccc2)[C@H](c2ccc(F)c(F)c2)C1 (stereo partly drawn) [Compound I-115] | 100 to 1000 nM |
| COCC(C(N)=O)N1C[C@@H](NC(=O)Nc2c(C)c(-c3cnn(C)c3)nn2-c2ccccc2)[C@H](c2ccc(F)c(F)c2)C1 (stereo partly drawn) [Compound I-116] | 100 to 1000 nM |
| COCC(CC(=O)OC)N1C[C@@H](NC(=O)Nc2c(C)c(-c3cnn(C)c3)nn2-c2ccccc2)[C@H](c2ccc(F)c(F)c2)C1 (stereo partly drawn) [Compound I-117] | 100 to 1000 nM |
| Cc1c(-c2cnn(C)c2)nn(-c2ccccc2)c1NC(=O)N[C@@H]1CN(Cc2ccoc2)C[C@H]1c1ccc(F)c(F)c1 [Compound I-118] | 100 to 1000 nM |
| CCON=C1C[C@@H](NC(=O)Nc2c(C)c(-c3cnn(C)c3)nn2-c2ccccc2)[C@H](c2ccccc2)C1 [Compound I-120] | 100 to 1000 nM |
| COCCC1C[C@H](NC(=O)Nc2c(C)c(-c3cnn(C)c3)nn2-c2ccccc2)[C@@H](c2ccccc2)C1 (stereo partly drawn) [Compound I-123] | 100 to 1000 nM |
| CCOC(=O)CC1C[C@@H](NC(=O)Nc2c(C)c(-c3cnn(C)c3)nn2-c2ccccc2)[C@H](c2ccccc2)C1 (stereo partly drawn) [Compound I-124] | 100 to 1000 nM |
| Cc1c(-c2cnn(C)c2)nn(-c2ccccc2)c1NC(=O)N[C@@H]1CN(C2CCC2)C[C@H]1c1ccc(F)c(F)c1 [Compound I-125] | 100 to 1000 nM |
| CCOC(=O)C=C1C[C@@H](NC(=O)Nc2c(C)c(-c3cnn(C)c3)nn2-c2ccccc2)[C@H](c2ccccc2)C1 [Compound I-126] | 100 to 1000 nM |
| COCC(Cn1ccnc1)N1C[C@@H](NC(=O)Nc2c(C)c(-c3cnn(C)c3)nn2-c2ccccc2)[C@H](c2ccc(F)c(F)c2)C1 (stereo partly drawn) [Compound I-127] | 100 to 1000 nM |
| CNC(=O)C(COC)N1C[C@@H](NC(=O)Nc2c(C)c(-c3cnn(C)c3)nn2-c2ccccc2)[C@H](c2ccc(F)c(F)c2)C1 (stereo partly drawn) [Compound I-137] | 100 to 1000 nM |
| COCC(CNS(C)(=O)=O)N1C[C@@H](NC(=O)Nc2c(C)c(-c3cnn(C)c3)nn2-c2ccccc2)[C@H](c2ccc(F)c(F)c2)C1 (stereo partly drawn) [Compound I-140] | 100 to 1000 nM |

Now from value to molecule:

| IC50 | Compound |
| --- | --- |
| > 1000 nM | Cc1c(-c2cnn(C)c2)nn(-c2ccccc2)c1NC(=O)N[C@@H]1CN(CCS(C)(=O)=O)C[C@H]1c1ccc(F)c(F)c1 [Compound I-46] |
| > 1000 nM | Cc1c(-c2cnn(C)c2)nn(-c2ccccc2)c1NC(=O)N[C@@H]1CN(CCc2ccccc2)C[C@H]1c1ccc(F)c(F)c1 [Compound I-62] |
| > 1000 nM | Cc1c(-c2cnn(C)c2)nn(-c2ccccc2)c1NC(=O)N[C@@H]1CN(CCNC(=O)C(F)(F)F)C[C@H]1c1ccc(F)c(F)c1 [Compound I-72] |
| 100 to 1000 nM | COCCN1C[C@@H](NC(=O)C(O)c2c(C)c(-c3cnn(C)c3)nn2-c2ccccc2)[C@H](c2ccc(F)c(F)c2)C1 (stereo partly drawn) [Compound I-79] |
| 100 to 1000 nM | COCOCCN1C[C@@H](NC(=O)Nc2c(C)c(-c3cnn(C)c3)nn2-c2ccccc2)[C@H](c2ccc(F)c(F)c2)C1 [Compound I-80] |
| < 100 nM | COCCC1C[C@@H](NC(=O)Nc2c(C)c(-c3cnn(C)c3)nn2-c2ccccc2)[C@H](c2ccccc2)C1 (stereo partly drawn) [Compound I-88] |
| < 100 nM | COCC[C@H]1C[C@@H](NC(=O)Nc2c(C)c(-c3cnn(C)c3)nn2-c2ccccc2)[C@H](c2ccccc2)C1 [Compound I-95] |
| < 100 nM | Cc1c(-c2cnn(C)c2)nn(-c2ccccc2)c1NC(=O)N[C@@H]1CN(Cc2ccon2)C[C@H]1c1ccc(F)c(F)c1 [Compound I-98] |
| < 100 nM | COCC(CCl)N1C[C@@H](NC(=O)Nc2c(C)c(-c3cnn(C)c3)nn2-c2ccccc2)[C@H](c2ccc(F)c(F)c2)C1 (stereo partly drawn) [Compound I-99] |
| < 100 nM | Cc1c(-c2cnn(C)c2)nn(-c2ccccc2)c1NC(=O)N[C@@H]1CN(C(C)c2ccco2)C[C@H]1c1ccc(F)c(F)c1 (stereo partly drawn) [Compound I-101] |
| < 100 nM | COCC(CNC(N)=O)N1C[C@@H](NC(=O)Nc2c(C)c(-c3cnn(C)c3)nn2-c2ccccc2)[C@H](c2ccc(F)c(F)c2)C1 (stereo partly drawn) [Compound I-111] |
| 100 to 1000 nM | COCC(CN1CCC1)N1C[C@@H](NC(=O)Nc2c(C)c(-c3cnn(C)c3)nn2-c2ccccc2)[C@H](c2ccc(F)c(F)c2)C1 (stereo partly drawn) [Compound I-119] |
| 100 to 1000 nM | COCC(CN)N1C[C@@H](NC(=O)Nc2c(C)c(-c3cnn(C)c3)nn2-c2ccccc2)[C@H](c2ccc(F)c(F)c2)C1 (stereo partly drawn) [Compound I-131] |
| 100 to 1000 nM | COCC(C(N)=O)N1C[C@@H](NC(=O)Nc2c(C)c(-c3cnn(C)c3)nn2-c2ccccc2)[C@H](c2ccc(F)c(F)c2)C1 (stereo partly drawn) [Compound I-133] |
| 100 to 1000 nM | CNCC(COC)N1C[C@@H](NC(=O)Nc2c(C)c(-c3cnn(C)c3)nn2-c2ccccc2)[C@H](c2ccc(F)c(F)c2)C1 (stereo partly drawn) [Compound I-138] |
| 100 to 1000 nM | COCC(CNC(=O)OC)N1C[C@@H](NC(=O)Nc2c(C)c(-c3cnn(C)c3)nn2-c2ccccc2)[C@H](c2ccc(F)c(F)c2)C1 (stereo partly drawn) [Compound I-139] |
| > 1000 nM | Cc1c(-c2cnn(C)c2)nn(-c2ccccc2)c1NC(=O)N[C@@H]1CN(C2CCCCC2)C[C@H]1c1ccc(F)c(F)c1 [Compound I-143] |

Source: US10532985B2, “Heterocycle and carbocycle derivatives having TRKA inhibitory activity” (Shionogi & Co., Ltd., priority 2014, dated 2020)
